The record followed here is ChEMBL document CHEMBL3046147, “Synthesis and Herbicidal Activity of 1-Arylalkyl-3-pyrrolin-2-one Derivatives” (J Pestic Sci, 2000).

Series [1] has as its system Echinochloa oryzicola. Briefly: Pre-emergence herbicide activity against Echinochloa oryzicola under greenhouse condition measured after 14 to 20 days. It is filed as functional.
The test system of series [2] is Oryza sativa. As to the kind of experiment: Phytotoxicity against two-leaf stage Oryza sativa cv. Nihonbare (rice) planted 1 cm depth measured after […]. Format: organism-based. Particulars: in vivo.
The test system of series [3] is Oryza sativa. Briefly: Phytotoxicity against two-leaf stage Oryza sativa cv. Nihonbare (rice) planted 3 cm depth measured after […]. It is filed as organism-based. Particulars: in vivo.
In the next series the test system is Sagittaria pygmaea. As to the kind of experiment: Herbicide activity against Sagittaria pygmaea under greenhouse condition compound treated at 0.5 leaf-stage measured after 14 to 20 days. Format: functional.
Series [4] deals with Schoenoplectiella juncoides. As to the kind of experiment: Herbicide activity against Schoenoplectiella juncoides under greenhouse condition compound treated at emergence-stage measured after 14 to 20 days. Format: functional.
Series [5] has as its system Echinochloa oryzicola. As to the kind of experiment: Herbicide activity against Echinochloa oryzicola under greenhouse condition compound treated at 2 leaf-stage measured after 14 to 20 days. Format: functional.

As to `CC1=C(c2ccc(F)cc2F)C(=O)N(C(C)(C)c2nc3ccccc3s2)C1`, the MED with Echinochloa oryzicola [1] is given as 1.25 g/acre; with Sagittaria pygmaea it was 10 g/acre; in series [4] it was 10 g/acre; in the series with Echinochloa oryzicola [5] it was <5 g/acre. Besides, the MTD is > 5 g/acre in the series on Oryza sativa [2] and 10 g/acre in the series with Oryza sativa [3].
With `CC1=C(c2ccccc2C(=O)O)C(=O)N(C(C)(C)c2nc3ccccc3s2)C1`, the MED is given as 160 g/acre with Echinochloa oryzicola [1], 160 g/acre in the series with Sagittaria pygmaea, 160 g/acre in series [4] and <5 g/acre in the series on Echinochloa oryzicola [5]. In addition, the MTD in the series on Oryza sativa [2] came to 40 g/acre; in the series on Oryza sativa [3] it was 20 g/acre.
With `COc1ccc(C2=C(C)CN(C(C)(C)c3nc4ccccc4s3)C2=O)cc1OC`, the MED in the series on Echinochloa oryzicola [1] is 160 g/acre; in the series on Sagittaria pygmaea, 160 g/acre; in series [4] it was 160 g/acre; in the series with Echinochloa oryzicola [5] it was <5 g/acre. Moreover, the MTD with Oryza sativa [2] and with Oryza sativa [3] was 80 g/acre throughout.
